Test [1] concerns the target KRAS (G12C)::SOS1 (Homo sapiens (Human), UniProt P01116, C118S/C51S/C80L/G12C). Kind of test: KRAS::SOS1 AlphaScreen binding assay, KRAS G12C. The source says: This assay can be used to examine the potency with which compounds according to the invention binding to (mutated) KRAS inhibit the protein-protein interaction between SOS1 and (mutated) KRAS e.g., KRAS WT, KRAS G12C, KRAS G12D, KRAS G12V, KRAS G13D. […] Low IC50 values in this assay setting are indicative of strong inhibition of protein-protein interaction between SOS1 and KRAS:
These assays measure the inhibitory effect of compounds on KRAS mutant protein-protein interactions using the Alpha Screen technology by Perkin Elmer.
The following (mutant) enzyme forms of KRAS and interacting proteins are used in these assays at the given concentrations: • KRAS (G12D) 1-169, N-terminal 6His-tag, C-terminal avi-tag (Xtal BioStructures, Inc.); final assay concentration 10 nM and SOS1 564-1049, N-terminal 229 GST-tag, TEV cleavage site (Viva Biotech Ltd); final assay concentration 5 nM; • KRAS (G12C) 1-169, N-terminal 6His-tag for purification, cleaved off, C-terminal avi-tag, biotinylated, mutations: C51S, C80L, C118S (in house); final assay concentration 7.5 nM and SOS1 564-1049, N-terminal 229 GST-tag, TEV cleavage site (Viva Biotech Ltd); final assay concentration 5 nM; • KRAS (G12V) 1-169, N-terminal 6His-tag for purification, cleaved off, C-terminal avi-tag, biotinylated, TEV cleavage site, mutation: C118S, GDP loaded (in house); final assay concentration 10 nM and SOS1 564-1049, N-terminal 229 GST-tag, TEV cleavage site (Viva Biotech Ltd); final assay concentration 10 nM; • KRAS (G13D) 1-169, N-terminal 6His-tag for purification, cleaved off, C-terminal avi-tag, biotinylated, TEV cleavage site, mutation: C118S, GDP loaded (in house); final assay concentration 10 nM and SOS1 564-1049, N-terminal 229 GST-tag, TEV cleavage site (Viva Biotech Ltd); final assay concentration 10 nM; • KRAS (WT) 1-169, N-terminal 6His-tag for purification, cleaved off, C-terminal avi-tag, biotinylated, TEV cleavage site, mutation: C118S, GDP loaded (in house); final assay concentration 10 nM and SOS1 564-1049, N-terminal 229 GST-tag, TEV cleavage site (Viva Biotech Ltd); final assay concentration 10 nM.
Test compounds dissolved in DMSO are dispensed onto assay plates (Proxiplate 384 PLUS, white, PerkinElmer; 6008289) using an Access Labcyte Workstation with the Labcyte Echo 55×. For the chosen highest assay concentration of 100 μM, 150 nL of compound solution are transferred from a 10 mM DMSO compound stock solution. A series of eleven fivefold dilutions per compound are transferred to the assay plate, compound dilutions are tested in duplicates. DMSO are added as backfill to a total volume of 150 nL.
The assays run on a fully automated robotic system in a darkened room below 100 Lux. To 150 nl of compound dilution 10 μl of a mix including KRAS mutant protein, SOS1 (final assay concentrations see above) and GDP nucleotide (Sigma G7127; final assay concentration 10 μM) in assay buffer (1×PBS, 0.1% BSA, 0.05% Tween 20) are added into columns 1-24.
After 30 minutes incubation time 5 μl of Alpha Screen bead mix in assay buffer are added into columns 1-23. Bead mix consists of AlphaLISA Glutathione Acceptor Beads (PerkinElmer, Cat No AL109) and AlphaScreen Streptavidin Donor Beads (PerkinElmer Cat No 6760002) in assay buffer at a final assay concentration of 10 μg/ml each.
Plates are kept at room temperature in a darkened incubator. After an additional 60 minutes incubation time the signal is measured in a PerkinElmer Envision HTS Multilabel Reader using the AlphaScreen specs from PerkinElmer.
Each plate contains up to 16 wells of a negative control depending on the dilution procedure (platewise or serial) (DMSO instead of test compound; with KRAS mutant::SOS1 GDP mix and bead mix; column 23) and 16 wells of a positive control (DMSO instead of test compound; with KRAS mutant::SOS1 GDP mix w/o bead mix; column 24).
As internal control known inhibitors of KRAS mutant::SOS1 interaction can be measured on each compound plate. […]

Test [2] has as its system KRAS G12V-dependent Ba/F3 cells. Put plainly: Ba/F3 proliferation assay, KRAS G12V.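 Also: proliferation IC50 in KRAS G12V-dependent Ba/F3 cells read by AlamarBlue.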 Type of test: cell-based. The note with it: Mus musculus, BaF3, 72 h, AlamarBlue. The protocol: Plasmids containing KRASG12 mutants (i.e. […], G12C, G12V) are obtained from GeneScript. To generate KRASG12-dependent Ba/F3 models, Ba/F3 cells are transduced with retroviruses containing vectors that harbor KRASG12 isoforms. Platinum-E cells (Cell Biolabs) are used for retrovirus packaging. Retrovirus is added to Ba/F3 cells. To ensure infection, 4 μg/mL polybrene is added and cells are spinfected. […] Cells with an infection efficiency of 10% to 20% are further cultivated and puromycin selection with 1 μg/mL is initiated. As a control, parental Ba/F3 cells are used to show selection status. Selection is considered successful when parental Ba/F3 cells cultures died. To evaluate the transforming potential of KRASG12 mutations, the growth medium is no longer supplemented with IL-3. Ba/F3 cells harboring the empty vector are used as a control. Approximately ten days before conducting the experiments, puromycin is left out.
Compounds are added using an Access Labcyte Workstation with a Labcyte Echo 550 or 555 accoustic dispenser. All treatments are performed in technical duplicates. […] AlamarBlue™ (ThermoFisher), a viability stain, is added and fluorescence measured in the PerkinElmer Envision HTS Multilabel Reader. The raw data are imported into and analyzed with the Boehringer Ingelheim proprietary software MegaLab (curve fitting based on the program PRISM, GraphPad Inc.).

Sequence of KRAS (G12C)::SOS1 (P01116 other isoform, or with tags, fused parts or gaps G12C/C51S/C80L/C118S): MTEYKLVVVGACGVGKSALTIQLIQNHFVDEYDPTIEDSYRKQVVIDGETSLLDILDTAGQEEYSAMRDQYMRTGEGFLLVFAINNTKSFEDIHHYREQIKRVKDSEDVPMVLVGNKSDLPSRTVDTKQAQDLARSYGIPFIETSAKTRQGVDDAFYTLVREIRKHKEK

With `C[C@H](Oc1cc(-n2ccnc2Cl)nc(-c2noc3c2CCC[C@@]32CCCc3sc(N)c(C#N)c32)n1)[C@@H]1CCCN1C` [II-93], the IC50 came out at 3 nM in test [1] and 45 nM in test [2].
For `Cc1nccn1-c1cc(O[C@@H](C)[C@@H]2CCCN2C)nc(-c2noc3c2CCC[C@@]32CCCc3sc(N)c(C#N)c32)n1` [II-79], in that order: 2 nM and 18 nM.
The like results for `C[C@H](Oc1cc(-c2cnn(C)c2)nc(-c2noc3c2CCC[C@@]32CCCc3sc(N)c(C#N)c32)n1)[C@@H]1CCCN1C` [II-74] were, in that order, 3 nM and 11 nM.
The like results for `C[C@H](Oc1cc(-c2ccccn2)nc(-c2noc3c2CCC[C@@]32CCCc3sc(N)c(C#N)c32)n1)[C@@H]1CCCN1C` [II-85] were, in that order, 2 nM and 8 nM.
For the molecule `C[C@H](Oc1cc(-c2cn(C3CCOCC3)nn2)nc(-c2noc3c2CCC[C@@]32CCCc3sc(N)c(C#N)c32)n1)[C@@H]1CCCN1C` [II-115], the values for the IC50 in test [1] and in test [2] were 8 nM and 34 nM, respectively.
The like results for `C[C@H](Oc1cc(C2=CCOCC2)nc(-c2noc3c2CCC[C@@]32CCCc3sc(N)c(C#N)c32)n1)[C@@H]1CCCN1C` [II-67] were, in that order, 2 nM and 15 nM.
The like results for `C[C@H](Oc1cc(-c2cncs2)nc(-c2noc3c2CCC[C@@]32CCCc3sc(N)c(C#N)c32)n1)[C@@H]1CCCN1C` [II-80] were, in that order, 7 nM and 10 nM.
Consider `Cc1cn(-c2cc(O[C@@H](C)[C@@H]3CCCN3C)nc(-c3noc4c3CCC[C@@]43CCCc4sc(N)c(C#N)c43)n2)nn1` [II-106], for which the 50% inhibitory concentration (IC50) in test [1] came out at 4 nM; in test [2], 23 nM.
For `C[C@H](Oc1cc(N2CCCC2=O)nc(-c2noc3c2CCC[C@@]32CCCc3sc(N)c(C#N)c32)n1)[C@@H]1CCCN1C` [II-73], in that order: 3 nM and 17 nM.
For the molecule `C[C@H](Oc1cc(-n2ccnc2)nc(-c2noc3c2CCC[C@@]32CCCc3sc(N)c(C#N)c32)n1)[C@@H]1CCCN1C` [II-69], the values for the IC50 in test [1] and in test [2] were 2 nM and 7 nM, respectively.
For `C[C@H](Oc1cc(-c2cnsc2)nc(-c2noc3c2CCC[C@@]32CCCc3sc(N)c(C#N)c32)n1)[C@@H]1CCCN1C` [II-111], in that order: 2 nM and 4 nM.
The like results for `C[C@H](Oc1cc([C@H]2CCOC2)nc(-c2noc3c2CCC[C@@]32CCCc3sc(N)c(C#N)c32)n1)[C@@H]1CCCN1C` [II-88] were, in that order, 2 nM and 6 nM.
For `C[C@H](Oc1cc(-n2ccnc2)nc(-c2noc3c2CCC[C@@]32CCCc3sc(N)c(C#N)c32)n1)[C@@H]1C[C@@H](F)CN1C` [II-120], in that order: 2 nM and 13 nM.
As for `C[C@H](Oc1cc(N2CCNC3(CC3)C2)nc(-c2onc3c2CCC[C@@]32CCCc3sc(N)c(C#N)c32)n1)[C@@H]1CCCN1C` [I-5], the figures for the concentration for half-maximal inhibition (IC50) in test [1] and in test [2] were 2 nM and 253 nM, respectively.
As for `C[C@H](Oc1cc(N2CCNC2=O)nc(-c2noc3c2CCC[C@@]32CCCc3sc(N)c(C#N)c32)n1)[C@@H]1CCCN1C` [II-64], the IC50 in test [1] worked out at 2 nM; in test [2] it was 5 nM.
For `C[C@H](Oc1cc(N2CCC[C@@H](O)C2)nc(-c2noc3c2CCC[C@@]32CCCc3sc(N)c(C#N)c32)n1)[C@@H]1CCCN1C` [II-59], in that order: 2 nM and 31 nM.
On to `C[C@H](Oc1cc(-c2cccc(CO)c2)nc(-c2noc3c2CCC[C@@]32CCCc3sc(N)c(C#N)c32)n1)[C@@H]1CCCN1C` [II-97], for which the IC50 turned out to be 3 nM in test [1] and 26 nM in test [2].
Take `C[C@H](Oc1cc(-c2ccn(C)n2)nc(-c2noc3c2CCC[C@@]32CCCc3sc(N)c(C#N)c32)n1)[C@@H]1CCCN1C` [II-96]: the IC50 in test [1] amounted to 2 nM; in test [2], 5 nM.
For `C[C@H](Oc1cc(C2COCCO2)nc(-c2noc3c2CCC[C@@]32CCCc3sc(N)c(C#N)c32)n1)[C@@H]1CCCN1C` (stereo partly shown) [II-95], in that order: 2 nM and 27 nM.
The like results for `C[C@H](Oc1cc(N2CCN3CCC3C2)nc(-c2onc3c2CCC[C@@]32CCCc3sc(N)c(C#N)c32)n1)[C@@H]1CCCN1C` (stereo partly shown) [I-9] were, in that order, 5 nM and 496 nM.
`C[C@H](Oc1cc(N2CC[C@H](N(C)C)C2)nc(-c2noc3c2CCC[C@@]32CCCc3sc(N)c(C#N)c32)n1)[C@@H]1CCCN1C` [II-49]: the figures for the IC50 in test [1] and in test [2] were 9 nM and 304 nM, respectively.
The like results for `C[C@H](Oc1cc(-c2ccn(C[C@@H](C)O)n2)nc(-c2noc3c2CCC[C@@]32CCCc3sc(N)c(C#N)c32)n1)[C@@H]1CCCN1C` [II-117] were, in that order, 1 nM and 6 nM.
For `C[C@H](Oc1cc(-n2ccc(Br)n2)nc(-c2noc3c2CCC[C@@]32CCCc3sc(N)c(C#N)c32)n1)[C@@H]1CCCN1C` [II-110], in that order: 2 nM and 13 nM.
`C[C@H](Oc1cc(-n2cc(C3CC3)nn2)nc(-c2noc3c2CCC[C@@]32CCCc3sc(N)c(C#N)c32)n1)[C@@H]1CCCN1C` [II-118]: the IC50 is 2 nM in test [1] and 26 nM in test [2].
Turning to `C[C@H](Oc1cc(N2C[C@H](C)N[C@@H](C)C2)nc(-c2noc3c2CCC[C@@]32CCCc3sc(N)c(C#N)c32)n1)[C@@H]1CCCN1C` [II-56], the IC50 in test [1] was determined as 2 nM; in test [2], 166 nM.
For `C[C@H](Oc1cc(-n2cc(Cn3cncn3)nn2)nc(-c2noc3c2CCC[C@@]32CCCc3sc(N)c(C#N)c32)n1)[C@@H]1CCCN1C` [II-124], in that order: 2 nM and 12 nM.
For `CNC(=O)c1cn(-c2cc(O[C@@H](C)[C@@H]3CCCN3C)nc(-c3noc4c3CCC[C@@]43CCCc4sc(N)c(C#N)c43)n2)nn1` [II-122], in that order: 2 nM and 10 nM.
The like results for `C[C@H](Oc1cc(-c2cnn(C)n2)nc(-c2noc3c2CCC[C@@]32CCCc3sc(N)c(C#N)c32)n1)[C@@H]1CCCN1C` [II-86] were, in that order, 2 nM and 14 nM.
In the case of `C[C@H](O)Cn1ccc(-c2cc(O[C@@H](C)[C@@H]3CCCN3C)nc(-c3noc4c3CCC[C@@]43CCCc4sc(N)c(C#N)c43)n2)n1` [II-112], the IC50 was found to be 1 nM in test [1] and 6 nM in test [2].

The record behind these values is patent US20240174690A1, “ANNULATED 2-AMINO-3-CYANO THIOPHENES AND DERIVATIVES FOR THE TREATMENT OF CANCER” (BOEHRINGER INGELHEIM INTERNATIONAL GMBH, priority 2021, published 2024).
